# Experimental data: PMC12737022, “Evaluations of Sex Differences in Dosimetry in Rats Following Perfluorohexanesulfonamide (PFHxSA) Oral Exposure” (Toxics, 2025)
# “And” between values parts separate entries of the source, which are not always exact repeats. Identical values can stand only once. Like-named read-outs stand apart in the source and are kept apart here.
# Experiments:
# [1] = Liver dosimetry of PFHxSA and PFHxS by targeted LC/MS/MS; type: in vivo, rat; settings: for concentration at 24 h: Sprague Dawley (Crl:CD(SD)), rat, liver, oral
# Excerpt: The plasma and liver samples for this investigation were provided by Mutlu et al.. The study design, including detailed descriptions of animal handling, procedures for dosing, clinical observations, termination, and collection of tissues, is reported elsewhere and is consistent with the ARRIVE guidelines. Briefly, male and female Sprague Dawley (SD) rats (Crl:CD(SD)) (n = 48/sex, 96 total) were purchased from Charles River Laboratory (Raleigh, NC, USA) and allowed to acclimate for ≥5 days before initial dosing. Rats were 8–10 weeks old at the time of exposure. PFHxSA dosing solutions in corn oil were prepared on Day 0 and used over the course of the study. Rats of both sexes (n = 5/sex, dose, and time point, plus eight vehicle controls per sex) were dosed by oral gavage (5 mL/kg body weight) once daily for five days. […] The formulation concentrations decreased from 100 mg/kg/day at half-log10 intervals until the lowest dose level, which was a full log10 interval below the next higher dose, giving eight dose levels (0.01 to 100 mg/kg/day or 0.025 µmol/kg/day to 250 µmol/kg/day) in addition to vehicle controls. Doses were administered in randomized order within ± 1 h on each day of dosing. […] Rats were euthanized 24 h after the last dose. Blood was collected via cardiac puncture with tripotassium ethylene diamine tetraacetic acid (K3EDTA) as an anti-coagulant and centrifuged to collect cell-free plasma. Liver was collected and flash-frozen in liquid nitrogen. Liver, plasma, and dosing formulation samples were frozen at the USEPA Center for Computational Toxicology and Exposure (CCTE), Durham, NC, USA. Tissue samples (plasma and liver, n = 96 each) were stored at ≤−70 °C prior to extraction; dosing formulation samples (n = 9) were stored at −20 °C.
# Detailed information on solvents and standards used for targeted LC/MS/MS of PFHxSA and PFHxS can be found in SI Text S1 and SI Table S1. Plasma and liver preparations were modified from Conley et al.. Briefly, aliquots of plasma (25 µL) and liver (~10 mg) were spiked with PFOSA as an internal standard, as no isotope-labeled PFHxSA was available. Sample batches included up to 96 samples along with an MB, CCV, and LCS for QC. Commercial plasma (mixed-sex SD rat plasma) and liver (mixed-sex SD rat) were obtained from BioIVT (Westbury, NY, USA). Cold acetonitrile (ACN) with 0.1 M formic acid was used to precipitate proteins. Liver and plasma samples were prepared similarly, except that the livers were homogenized after solvent addition. Plasma samples were vortexed to mix before being chilled at −20 °C, after which samples were centrifuged at 5 °C and 10,000× g. Liver samples were chilled at −80 °C, then homogenized using an Omni International (Kennesaw, GA, USA) Bead Ruptor 24. Liver homogenates were centrifuged at 26,000× g and 5 °C. Supernatants from the extraction of both matrices were removed and stored at −20 °C until analysis. Refer to SI Text S4 for additional experimental details and information on calibration and QC parameters for quantitation of PFHxSA.
# Targeted LC/MS/MS of PFHxSA was performed on a Sciex 4000 QTRAP LC/MS/MS system operated in negative ESI mode with MRM scanning. A Restek (Bellefonte, PA, USA) Raptor Polar X (100 mm × 2 mm, 2.7 µm) column was used for liquid chromatography. Isocratic elution occurred over 10 min with a 30:70 ratio of mobile phase A (10 mM ammonium formate): mobile phase B (60:40 ACN: methanol). Both mobile phases included 0.05% formic acid. The LOQs for PFHxSA were 0.100 µM in plasma and 0.351 µM in liver. Additional details of the instrument method parameters for targeted analysis of PFHxSA are provided in SI Table S5. The MRM transitions for the PFHxSA method are provided in SI Table S6. […]
# [2] = In vitro-in vivo extrapolation (IVIVE) to estimate Css, rat
# Description: Intrinsic hepatic clearance (Clint) and fraction unbound in plasma (fup) were calculated from the experimental point estimate data as described in Dobreniecki et al.. Steady-state concentrations (Css) were derived based on zero-order uptake of an assumed daily dose from the gut (assuming 100% intestinal bioavailability) but considering hepatic clearance and non-metabolic renal clearance. Renal clearance was calculated using the glomerular filtration rate (a species-dependent constant) and the fraction unbound in blood (fub), estimated by adjusting the experimental fup for blood/plasma partitioning. The Css calculations, along with underlying species-specific physiologic scalars, are detailed in SI Texts S6 and S7. […]
# hepatocytes). In equation (C), the scalar 2000 is used to adjust the assay cell number to be consistent with units of 1 million cells in the Clint equation.
# Text S7 In Vitro-In Vivo Extrapolation (IVIVE) Calculations
# The pharmacokinetic equation used to estimate expected steady-state concentrations (Css) is based on zero-order uptake of a daily dose from the gut (assuming 100% bioavailability) with both nonmetabolic renal clearance (Clrenal) and hepatic clearance (Clhepatic) (Equation D). The chemical input rate (ko) is the product of the intake dosage and the model body weight; this represents the numerator of Equation D. The Clrenal calculation is shown in the first part of the denominator of Equation D; it is the product of the species-dependent glomerular filtration rate (GFR) and the unbound fraction in blood (fub) of the parent compound. The Clhepatic calculation is shown in the second part of the denominator of Equation D; it is the product of the species-dependent liver blood flow constant, the fub of the parent compound, and the experimentally derived intrinsic clearance (shown in Equation C) divided by the sum of these three values. All values used in Equation D are for first-order conditions of metabolism in the […]
smiles,measurement,setting,value
"NS(=O)(=O)C(F)(F)C(F)(F)C(F)(F)C(F)(F)C(F)(F)C(F)(F)F [PFHxSA, Perfluorohexanesulfonamide]",PFHxSA Male Liver Conc. (wet weight),"[1]; PFHxSA 0.3 mg/kg/day oral 5 days, male, individual rats",0.462 ng/mg and 0.399 ng/mg and 1.26 µM and 0.604 µM and 1.30 µM and 1.16 µM and 1.00 µM and 0.503 ng/mg
same,PFHxSA Female Liver Conc. (wet weight),"[1]; PFHxSA 1 mg/kg/day oral 5 days, female, individual rats",2.91 µM and 2.52 µM and 4.17 µM and 4.76 µM and 6.64 µM
same,PFHxSA Male Liver Conc. (wet weight),"[1]; PFHxSA 1 mg/kg/day oral 5 days, male, individual rats",0.846 ng/mg and 1.00 ng/mg and 1.09 ng/mg and 1.18 ng/mg and 2.12 µM and 2.51 µM and 2.73 µM and 2.97 µM
same,PFHxSA Female Liver Conc. (wet weight),"[1]; PFHxSA 3 mg/kg/day oral 5 days, female, individual rats",7.94 µM and 4.86 µM and 6.40 µM and 9.55 µM and 10.8 µM
same,PFHxSA Male Liver Conc. (wet weight),"[1]; PFHxSA 3 mg/kg/day oral 5 days, male, individual rats",1.92 ng/mg and 1.86 ng/mg and 1.63 ng/mg and 2.14 ng/mg and 4.81 µM and 4.67 µM and 4.08 µM and 5.36 µM
same,PFHxSA Female Liver Conc. (wet weight),"[1]; PFHxSA 10 mg/kg/day oral 5 days, female, individual rats",6.97 µM and 8.65 µM and 7.58 µM and 9.86 µM
same,PFHxSA Male Liver Conc. (wet weight),"[1]; PFHxSA 10 mg/kg/day oral 5 days, male, individual rats",5.65 ng/mg and 3.24 ng/mg and 4.53 ng/mg and 4.26 ng/mg and 14.2 µM and 8.13 µM and 11.4 µM and 10.7 µM
same,PFHxSA Female Liver Conc. (wet weight),"[1]; PFHxSA 30 mg/kg/day oral 5 days, female, individual rats",15.8 ng/mg and 7.72 ng/mg and 10.1 ng/mg and 8.88 ng/mg and 23.9 µM and 39.6 µM and 19.4 µM and 25.2 µM and 22.3 µM
same,PFHxSA Male Liver Conc. (wet weight),"[1]; PFHxSA 30 mg/kg/day oral 5 days, male, individual rats",4.86 ng/mg and 3.36 ng/mg and 4.47 ng/mg and 6.25 ng/mg and 12.2 µM and 8.43 µM and 11.2 µM and 15.7 µM
same,PFHxSA Female Liver Conc. (wet weight),"[1]; PFHxSA 100 mg/kg/day oral 5 days, female, individual rats",20.7 ng/mg and 12.3 ng/mg and 37.7 ng/mg and 20.9 ng/mg and 16.1 ng/mg and 52.0 µM and 30.8 µM and 94.6 µM and 52.3 µM and 40.3 µM
same,PFHxSA Male Liver Conc. (wet weight),"[1]; PFHxSA 100 mg/kg/day oral 5 days, male, individual rats",14.9 ng/mg and 19.0 ng/mg and 6.87 ng/mg and 4.89 ng/mg and 5.61 ng/mg and 37.4 µM and 47.6 µM and 17.2 µM and 12.3 µM
same,concentration at 24 h,"[1]; female, 0.1 mg/kg/day, PFHxSA 0.1 mg/kg/day oral 5 days, female, individual rats, read-out: PFHxSA Female Liver Conc. (wet weight)",436 nM and 174 ng/g
same,concentration at 24 h,"[1]; female, 0.3 mg/kg/day, PFHxSA 0.3 mg/kg/day oral 5 days, female rats, mean ± SD, read-out: PFHxSA Female Liver Conc.",1.69 ± 0.32 µM
same,concentration at 24 h,"[1]; female, 0.3 mg/kg/day, PFHxSA 0.3 mg/kg/day oral 5 days, female, individual rats, read-out: PFHxSA Female Liver Conc. (wet weight)",2.03 µM and 811 ng/g
same,concentration at 24 h,"[1]; female, 1 mg/kg/day, PFHxSA 1 mg/kg/day oral 5 days, female rats, mean ± SD, read-out: PFHxSA Female Liver Conc.",4.2 ± 1.6 µM
same,concentration at 24 h,"[1]; female, 3 mg/kg/day, PFHxSA 3 mg/kg/day oral 5 days, female rats, mean ± SD, read-out: PFHxSA Female Liver Conc.",7.91 ± 2.4 µM
same,concentration at 24 h,"[1]; female, 10 mg/kg/day, PFHxSA 10 mg/kg/day oral 5 days, female rats, mean ± SD, read-out: PFHxSA Female Liver Conc.",8.41 ± 1.1 µM
same,concentration at 24 h,"[1]; female, 10 mg/kg/day, PFHxSA 10 mg/kg/day oral 5 days, female, individual rats, read-out: PFHxSA Female Liver Conc. (wet weight)",8.98 µM and 3580 ng/g
same,concentration at 24 h,"[1]; female, 30 mg/kg/day, PFHxSA 30 mg/kg/day oral 5 days, female rats, mean ± SD, read-out: PFHxSA Female Liver Conc.",26.1 ± 7.9 µM
same,concentration at 24 h,"[1]; male, 0.3 mg/kg/day, PFHxSA 0.3 mg/kg/day oral 5 days, male rats, mean ± SD, read-out: PFHxSA Male Liver Conc.",1.06 ± 0.28 µM
same,concentration at 24 h,"[1]; male, 1 mg/kg/day, PFHxSA 1 mg/kg/day oral 5 days, male rats, mean ± SD, read-out: PFHxSA Male Liver Conc.",2.48 ± 0.39 µM
same,concentration at 24 h,"[1]; male, 1 mg/kg/day, PFHxSA 1 mg/kg/day oral 5 days, male, individual rats, read-out: PFHxSA Male Liver Conc. (wet weight)",821 ng/g and 2.06 µM
same,concentration at 24 h,"[1]; male, 3 mg/kg/day, PFHxSA 3 mg/kg/day oral 5 days, male rats, mean ± SD, read-out: PFHxSA Male Liver Conc.",4.67 ± 0.47 µM
same,concentration at 24 h,"[1]; male, 3 mg/kg/day, PFHxSA 3 mg/kg/day oral 5 days, male, individual rats, read-out: PFHxSA Male Liver Conc. (wet weight)",1780 ng/g and 4.45 µM
same,concentration at 24 h,"[1]; male, 10 mg/kg/day, PFHxSA 10 mg/kg/day oral 5 days, male rats, mean ± SD, read-out: PFHxSA Male Liver Conc.",10.6 ± 2.5 µM
same,concentration at 24 h,"[1]; male, 10 mg/kg/day, PFHxSA 10 mg/kg/day oral 5 days, male, individual rats, read-out: PFHxSA Male Liver Conc. (wet weight)",3370 ng/g and 8.44 µM
same,concentration at 24 h,"[1]; male, 30 mg/kg/day, PFHxSA 30 mg/kg/day oral 5 days, male rats, mean ± SD, read-out: PFHxSA Male Liver Conc.",11.6 ± 2.6 µM
same,concentration at 24 h,"[1]; male, 30 mg/kg/day, PFHxSA 30 mg/kg/day oral 5 days, male, individual rats, read-out: PFHxSA Male Liver Conc. (wet weight)",4320 ng/g and 10.8 µM
same,Css (steady-state concentration),"[2]; Rat, IVIVE-derived, assumes 1 mg/kg/day exposure",138 µM
same,CL renal,"[2]; Rat, non-metabolic, GFR x fub, read-out: Clrenal (renal clearance) (converted)",0.00167 mL/min
same,IVIVE-derived Css higher than in vivo plasma concentration,"[2]; rat, 1 mg/kg/day, female and male rat plasma, respectively",6.5–12.1 fold and 6.5–12 fold
